Some test systems named below: ACHN renal; T-47D breast; RXF 393 renal; OVCAR-3 ovarian; NCI/ADR-RES ovarian; KM12 colon; MCF7 breast; LOX IMVI melanoma; K-562 leukemia; HCT-116 colon.
What all share (experiment): NCI-60 cell line screen, 48 h

Structures are written as SMILES.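 The compound was tested at five concentrations on cells cultured in 96-well plates, with a 48-hour exposure period. TGI: concentration producing complete growth inhibition.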

As to `O=C1CC[C@@]2(O)[C@H]3Cc4ccc(-c5ccccc5)c5c4[C@@]2(CCN3CC2CC2)[C@H]1O5`, the TGI in the test with ACHN renal came to 42.4 µM; in the test with T-47D breast, 35.7 µM; in the test with RXF 393 renal, 23.7 µM; in the test with OVCAR-3 ovarian, 33.6 µM; with NCI/ADR-RES ovarian, 33.7 µM; in the test with KM12 colon, 36.6 µM. The TGI in the test with MCF7 breast was found to be 33.5 µM; in the test with LOX IMVI melanoma, 32.8 µM; in the test on K-562 leukemia, 63.7 µM; in the test on HCT-116 colon, 32 µM.

As for `CC(=O)Oc1ccc2c(c1)CC[C@@H]1C2[C@@H](O[N+](=O)[O-])C[C@@]2(C)C1CC[C@@H]2O[N+](=O)[O-]` (stereo partly drawn), the TGI in the test on ACHN renal was 22 µM; with T-47D breast, 26.8 µM; in the test with RXF 393 renal, 23.7 µM; with OVCAR-3 ovarian, 28.5 µM; with NCI/ADR-RES ovarian it was 33.6 µM; in the test on KM12 colon, 33.4 µM. Besides, the TGI in the test with MCF7 breast was 22.4 µM; in the test with LOX IMVI melanoma it was 28.9 µM; with K-562 leukemia it was 32.6 µM; with HCT-116 colon, 23.2 µM.

With `Cc1cc(S(=O)(=O)Nc2nnc3cnc4ccccc4n23)c(S)cc1Cl`, the TGI in the test with ACHN renal, in the test with T-47D breast, with RXF 393 renal, in the test with OVCAR-3 ovarian, in the test with NCI/ADR-RES ovarian and with KM12 colon was over 100 µM throughout. Moreover, the TGI in the test on MCF7 breast, with LOX IMVI melanoma, in the test on K-562 leukemia and with HCT-116 colon was over 100 µM each time.

`COc1c(-c2nc3nc(N4CCN(C)CC4)ccc3[nH]2)cc(OC)c2c1nc(COC(C)=O)n2C`: the TGI with ACHN renal, in the test on T-47D breast, in the test with RXF 393 renal, in the test on OVCAR-3 ovarian, with NCI/ADR-RES ovarian and in the test on KM12 colon was over 100 µM each time. Moreover, the TGI with MCF7 breast, with LOX IMVI melanoma, with K-562 leukemia and in the test on HCT-116 colon was over 100 µM throughout.

`COC(=O)N[C@H](C(=O)O)C(C)O[Si](C)(C)C(C)(C)C` (stereo partly drawn): the TGI in the test with ACHN renal, in the test on T-47D breast, in the test on RXF 393 renal, in the test with OVCAR-3 ovarian, with NCI/ADR-RES ovarian and with KM12 colon was over 100 µM throughout. The TGI with MCF7 breast, in the test on LOX IMVI melanoma, with K-562 leukemia and in the test with HCT-116 colon was over 100 µM throughout.

As for `CC(C)(C)c1cc(OCc2nn3c(Cc4ccccc4)nnc3s2)c(Cl)cc1OCc1nn2c(Cc3ccccc3)nnc2s1`, the TGI with ACHN renal was over 100 µM; in the test on T-47D breast, over 100 µM; with RXF 393 renal it was over 100 µM; in the test with OVCAR-3 ovarian, 60.4 µM; in the test on NCI/ADR-RES ovarian, over 100 µM; in the test with KM12 colon it was over 100 µM. Besides, the TGI in the test with MCF7 breast, in the test with LOX IMVI melanoma, in the test with K-562 leukemia and in the test on HCT-116 colon was over 100 µM throughout.

On to `Clc1cccc(NN=Nc2ccc(-c3nc4ccccc4s3)cc2)c1`, for which the TGI in the test on ACHN renal is over 100 µM; with T-47D breast it was over 100 µM; with RXF 393 renal it was 82.8 µM; in the test on OVCAR-3 ovarian, over 100 µM; with NCI/ADR-RES ovarian it was 74.1 µM; in the test on KM12 colon, over 100 µM. Also, the TGI was over 100 µM in the test on MCF7 breast, over 100 µM with LOX IMVI melanoma, 92.5 µM with K-562 leukemia and over 100 µM in the test with HCT-116 colon.

As for `CSc1ccn(C2CC(F)C(CO)O2)c(=O)n1` (stereo not drawn), the TGI in the test with ACHN renal, in the test on T-47D breast, in the test with RXF 393 renal, in the test on OVCAR-3 ovarian, in the test on NCI/ADR-RES ovarian and with KM12 colon was over 100 µM throughout. Also, the TGI in the test with MCF7 breast, with LOX IMVI melanoma, with K-562 leukemia and in the test on HCT-116 colon was over 100 µM throughout.

Turning to `Cc1ccc(-c2nc(N/N=C/c3ccc(O)cc3)c3ccccc3n2)cc1`, the TGI with ACHN renal was 35.7 µM; in the test with T-47D breast it was 26 µM; in the test with RXF 393 renal, 76 µM; with OVCAR-3 ovarian it was over 100 µM; in the test with NCI/ADR-RES ovarian, over 100 µM; in the test on KM12 colon, 41.4 µM. For the same molecule, the TGI is 26.2 µM in the test on MCF7 breast, 36.2 µM with LOX IMVI melanoma, over 100 µM in the test on K-562 leukemia and 37.6 µM with HCT-116 colon.

Regarding `COc1ccc(C2C(C#N)=C(S)N(C3OC(COC(C)=O)C(OC(C)=O)C(OC(C)=O)C3OC(C)=O)C(c3ccccc3)=C2C(C)=O)cc1` (stereo not drawn), the TGI is over 100 µM in the test with ACHN renal; 80.1 µM with T-47D breast; over 100 µM in the test with RXF 393 renal; over 100 µM in the test with OVCAR-3 ovarian; over 100 µM with NCI/ADR-RES ovarian; over 100 µM in the test with KM12 colon. The TGI with MCF7 breast, in the test on LOX IMVI melanoma, in the test on K-562 leukemia and in the test with HCT-116 colon was over 100 µM in each case.

For `O=C(/C=C/c1cccc(Oc2ccccc2)c1)NCc1ccc(C(=O)NCCc2ccccc2)cc1`, the TGI was over 100 µM with ACHN renal; over 100 µM in the test with T-47D breast; 61.1 µM with RXF 393 renal; over 100 µM in the test with OVCAR-3 ovarian; over 100 µM with NCI/ADR-RES ovarian; over 100 µM in the test on KM12 colon. The TGI with MCF7 breast, in the test on LOX IMVI melanoma, in the test with K-562 leukemia and in the test with HCT-116 colon was over 100 µM each time.

As to `O=C(Nc1cccc([N+](=O)[O-])c1)c1n[nH]n(-c2cccc([N+](=O)[O-])c2)c1=O`, the TGI in the test on ACHN renal, in the test on T-47D breast, in the test on RXF 393 renal, in the test with NCI/ADR-RES ovarian, in the test on KM12 colon and in the test with MCF7 breast was over 100 µM each time. The TGI in the test on LOX IMVI melanoma, with K-562 leukemia and in the test with HCT-116 colon was over 100 µM in each case.

With `c1csc(-c2ccsc2-c2cccs2)c1`, the TGI in the test on ACHN renal, in the test with T-47D breast, with RXF 393 renal, in the test with OVCAR-3 ovarian, with NCI/ADR-RES ovarian and in the test on KM12 colon was over 100 µM each time. In addition, the TGI in the test on MCF7 breast, in the test with LOX IMVI melanoma and with HCT-116 colon was over 100 µM each time.

For `NC1=Nc2cc(Cl)ccc2Sc2nc3ccccc3n21`, the TGI in the test with ACHN renal, in the test on T-47D breast, in the test on RXF 393 renal, with OVCAR-3 ovarian, in the test with NCI/ADR-RES ovarian and in the test on KM12 colon was over 100 µM in each case. The TGI with MCF7 breast, in the test with LOX IMVI melanoma and in the test on K-562 leukemia was over 100 µM each time.

Turning to `COC1=CC(=O)CC(C)C12Oc1c(Cl)c(OC)cc(OC)c1C2=O` (stereo not drawn), the TGI with ACHN renal was over 100 µM; in the test on T-47D breast, over 100 µM; in the test with RXF 393 renal it was 43.3 µM; in the test with OVCAR-3 ovarian, over 100 µM; with NCI/ADR-RES ovarian, over 76.4 µM; in the test with KM12 colon, over 100 µM. Moreover, the TGI in the test on MCF7 breast was over 100 µM; in the test with LOX IMVI melanoma, over 100 µM; in the test with K-562 leukemia it was over 66.4 µM; in the test with HCT-116 colon, over 93.7 µM.

With `Nc1nc(Cl)cc(NC2(CO)CCC2)n1`, the TGI with ACHN renal, in the test on T-47D breast, in the test on RXF 393 renal, in the test on OVCAR-3 ovarian, with NCI/ADR-RES ovarian and in the test with KM12 colon was over 100 µM throughout. Besides, the TGI in the test with MCF7 breast, with LOX IMVI melanoma, in the test with K-562 leukemia and with HCT-116 colon was over 100 µM in each case.

`COc1cc(OC)c2c3c(OC)cc(OC)c4c(=O)c(O)c(C[C@@H](C)O)c(c5c(C[C@@H](C)O)c(O)c(=O)c1c25)c43`: the TGI with ACHN renal is over 100 µM; with T-47D breast, 44.5 µM; in the test on RXF 393 renal, 73.1 µM; in the test on OVCAR-3 ovarian, 9.4 µM; in the test with NCI/ADR-RES ovarian, over 100 µM; with KM12 colon it was 83.2 µM. Further, the values for the TGI with MCF7 breast, in the test on LOX IMVI melanoma and in the test on HCT-116 colon were 48.6 µM, 35.3 µM and 30.1 µM, respectively.

As for `CC(=O)Oc1c(-c2ccccc2)sc2ccccc12`, the TGI in the test with ACHN renal was 32 µM; in the test on T-47D breast, 44.5 µM; with RXF 393 renal, 28.1 µM; in the test with NCI/ADR-RES ovarian, 59.1 µM; with KM12 colon it was 52.3 µM; with MCF7 breast, 56.4 µM. Further, the results for the TGI in the test with LOX IMVI melanoma, in the test on K-562 leukemia and in the test with HCT-116 colon were 26.4 µM, 36.2 µM and 26.1 µM, respectively.

In the case of `Cc1sc2c(c1C)/C(=N\O)c1cccn1-2`, the TGI is over 100 µM in the test on ACHN renal; over 100 µM in the test with T-47D breast; 65.5 µM in the test with RXF 393 renal; over 100 µM in the test with OVCAR-3 ovarian; over 100 µM in the test with NCI/ADR-RES ovarian; over 100 µM in the test with KM12 colon. Also, the TGI with MCF7 breast, with LOX IMVI melanoma and in the test with HCT-116 colon was over 100 µM in each case.

As for `COC(=O)c1c(C#N)c(N)nc2c1CCC2`, the TGI in the test on ACHN renal, with T-47D breast, with RXF 393 renal, in the test with NCI/ADR-RES ovarian, with KM12 colon and in the test with MCF7 breast was over 100 µM throughout. Also, the TGI in the test with LOX IMVI melanoma, in the test with K-562 leukemia and with HCT-116 colon was over 100 µM each time.

The values above are taken from PubChem BioAssay (NCI).
